Data on 19 compounds can be found in US20240166693A1, “METHODS AND COMPOUNDS FOR MODULATING MYOTONIC DYSTROPY 1” (Design Therapeutics, Inc., priority 2020, published 2024).

This assay deals with Myotonic Dystrophy 1 affected patient fibroblasts (Coriell GM04602; 1600 CTG repeats). Put plainly: DM1 foci reduction assay (CAG10-Cy3 FISH, average foci per nucleus). Particulars: Homo sapiens, Fibroblast. Format: cell-based. As to the method: DM1 foci reduction assay methods: Myotonic Dystrophy 1 affected patient fibroblasts (Coriell GM04602; 1600 CTG repeats) and wild type fibroblasts (Coriell GM07492; control line) were cultured separately in Gibco DMEM (1×)+4.5 g/L D-Glucose+L-Glutamine+110 mg/L Sodium Pyruvate, supplemented with 10% FBS and 1× Pen/Strep. Cells were maintained in incubator at 37° C. and 5% CO2 with media refresh every 48-72 hours.
At 90-95% confluency, both cell lines were harvested using Trypl-E then pelleted at 500×g for 5 minutes and were resuspended in media. DM1 fibroblasts were seeded in Agilent 96 well black plates at a density of 5,000 cells/well in 200 μL media; 8 wells were reserved for control fibroblasts. Plates were returned to incubator for 24 hours at 37° C. and 5% CO2.
Compounds were diluted from 10 mM stock to 1 mM in DMSO, then diluted once more to 6 μM (2× concentration) in media. Media was removed from all plates and cells were replenished with 100 μL media. Cells were treated in 8-point dose response, 1:3 fold dilution, 3 μM top dose via addition of 100 μL of 6 μM (2× concentration) compound to the 100 μL media with cells. Plates were returned to incubator for 48-hour time-course experiment at 37° C. and 5% CO2.
Following treatment, compounds were removed, and plates were washed with PBS, then cells were fixed in 75 μL 4% PFA solution for 20 minutes at room temperature. Plates were washed twice with PBS and twice with cold 70% ethanol before permeabilization with 250 μL cold 70% ethanol for 24-72 hours at −20° C.
After permeabilization, plates were washed once with a 30% formamide and 2×SSC buffer and rehydrated in that buffer for 15 minutes at room temperature. Cells were incubated overnight at 37° C. in 75 μL of a hybridization solution containing 30% formamide, 2×SSC, 25 mg/mL dextran sulfate, 2.5 mg/mL BSA, 0.2 μg/mL Herring sperm DNA, 2 mM vanadyl-ribonucleoside complex, and 5 nM CAG10-Cy3 probe.
Plates were washed once with 30% formamide in 2×SSC buffer, then twice with the buffer for 30 minutes at 37° C., 300 RPM in an incubating plate shaker. Cells were stained with 75 μL of 2.5 μg/mL DAPI in PBS for 5 minutes at room temperature. Plates were then washed twice with PBS and stored in 250 μL PBS. Plates were sealed with adhesive foil and wiped down with 70% ethanol.
Cells were imaged on a Cytation5 with a 20× objective sampling from 4 areas of each well. Nuclei were captured under DAPI channel and foci under RFP channel. Plates were analyzed on an average foci per nucleus per well basis.

Where [1] appears, read: DM1 fibroblasts, 48 h treatment, 8-point dose response, 3 μM top dose, read-out: Foci Reduction in Fibroblast EC50, 48 h.
[2] abbreviates: 48 h, read-out: Foci Reduction in Fibroblast EC50, 48 h (nM).

The structures appear in SMILES notation. Like-named read-outs stand apart in the source and are kept apart here.

For `CC(C)c1cnn2c(NCc3ccc(OCCOCCOCCOCCOCCOCCOCCOCCOCCOCCOCCNC(=O)CCNC(=O)c4nc(NC(=O)c5cc(NC(=O)CCNC(=O)c6nc(NC(=O)CCCNC(=O)c7cc(NC(=O)c8nc(NC(=O)CCNC(=O)c9cc(NC(=O)c%10nccn%10C)cn9C)cn8C)cn7C)cn6C)cn5C)cn4C)cc3-n3cccn3)nc(OC3CCCNC3)nc12` (stereo not shown) [Compound 53], the EC50 (in general, the concentration needed to bring the measured effect to its halfway point) under setting [1] is above 500 nM.
Regarding `CCN(CC)CCCC[C@H](NC(=O)CCCCCCCNC(=O)c1ccc(C(C)(C)C)cc1)C(=O)N[C@@H](CO)C(=O)NCCOCCOCCOCCOCCOCCNC(=O)CCNC(=O)c1nc(NC(=O)c2cc(NC(=O)CCNC(=O)c3nc(NC(=O)CCCNC(=O)c4cc(NC(=O)c5nc(NC(=O)CCNC(=O)c6cc(NC(=O)c7nccn7C)cn6C)cn5C)cn4C)cn3C)cn2C)cn1C` [Compound 139], the EC50 under setting [2] is below 100 nM.
Same read-out and setting: to `CCN(CC)CCCC[C@H](NC(=O)[C@H](CC(C)C)NC(=O)[C@H](C)NC(=O)[C@H](Cc1ccccc1)NC(=O)c1ccc(C(C)(C)C)cc1)C(=O)N[C@@H](CO)C(=O)N1CCC(C#CC#CC2CCN(CCOCCOCCOCCNC(=O)CCNC(=O)c3nc(NC(=O)c4cc(NC(=O)CCNC(=O)c5nc(NC(=O)CCCNC(=O)c6cc(NC(=O)c7nc(NC(=O)CCNC(=O)c8cc(NC(=O)c9nccn9C)cn8C)cn7C)cn6C)cn5C)cn4C)cn3C)CC2)CC1` [Compound 180] belongs below 100 nM.
As for `CCN(CC)CCCC[C@H](NC(=O)[C@H](CC(C)C)NC(=O)[C@H](C)NC(=O)[C@H](Cc1ccccc1)NC(=O)c1ccc(C(C)(C)C)cc1)C(=O)N[C@@H](CO)C(=O)NCCOCCOCCOCCOCCN1CCN(C(=O)CCNC(=O)c2nc(NC(=O)c3cc(NC(=O)CCNC(=O)c4nc(NC(=O)CCCNC(=O)c5cc(NC(=O)c6nc(NC(=O)CCNC(=O)c7cc(NC(=O)c8nccn8C)cn7C)cn6C)cn5C)cn4C)cn3C)cn2C)CC1` [Compound 187], the EC50 under setting [2] was 100 to 500 nM.
Take `CCN(CC)CCCC[C@H](NC(=O)CCCCNC(=O)c1cnn(-c2ccc(C(C)(C)C)cc2)c1)C(=O)N[C@@H](CO)C(=O)NCCOCCOCCOCCOCCOCCNC(=O)CCNC(=O)c1nc(NC(=O)c2cc(NC(=O)CCNC(=O)c3nc(NC(=O)CCCNC(=O)c4cc(NC(=O)c5nc(NC(=O)CCNC(=O)c6cc(NC(=O)c7nccn7C)cn6C)cn5C)cn4C)cn3C)cn2C)cn1C` [Compound 151]: the EC50 under setting [2] is above 500 nM.
Same read-out and setting: then `CCN(CC)CCCC[C@H](NC(=O)[C@H](CC(C)C)NC(=O)[C@H](C)NC(=O)[C@H](Cc1ccccc1)NC(=O)c1ccc(C(C)(C)C)cc1)C(=O)N[C@@H](CO)C(=O)NCCOCCOCCOCCOCCOCCNC(=O)c1nc(NC(=O)CCNC(=O)c2cc(NC(=O)c3nc(NC(=O)CCCNC(=O)c4cc(NC(=O)c5nc(NC(=O)c6cc(NC(=O)c7cc(NC(=O)c8nccn8C)cn7C)cn6C)cn5C)cn4C)cn3C)cn2C)cn1C` [Compound 106], with above 500 nM.
Consider `CCN(CC)CCCC[C@H](NC(=O)[C@H](CC(C)C)NC(=O)[C@H](C)NC(=O)[C@H](Cc1ccccc1)NC(=O)c1ccc(C(C)(C)C)cc1)C(=O)N[C@@H](CO)C(=O)NCCOCCOCCNC(=O)c1cc(NC(=O)c2cc(NC(=O)c3nc(NC(=O)c4cc(NC(=O)[C@@H](N)CCNC(=O)c5nc(NC(=O)c6cc(NC(=O)c7cc(NC(=O)c8nccn8C)cn7C)cn6C)cn5C)cn4C)cn3C)cn2C)cn1C` [Compound 78], for which the EC50 under setting [2] is above 500 nM.
In the case of `CCN(CC)CCCC[C@H](NC(=O)[C@H](CC(C)C)NC(=O)[C@H](C)NC(=O)[C@H](Cc1ccccc1)NC(=O)c1ccc(C(C)(C)C)cc1)C(=O)N[C@@H](CO)C(=O)NCCOCCOCCOCCOCCOCCNC(=O)c1cc(NC(=O)c2nc(NC(=O)c3cc(NC(=O)[C@@H](N)CCNC(=O)c4nc(NC(=O)c5cc(NC(=O)c6cc(NC(=O)c7nccn7C)cn6C)cn5C)cn4C)cn3C)cn2C)cn1C` [Compound 57], under setting [2], the EC50 is above 500 nM.
As for `CCN(c1cc(-c2ccc(CN3CCN(CCCCCCCNC(=O)CCNC(=O)c4nc(NC(=O)c5cc(NC(=O)CCNC(=O)c6nc(NC(=O)CCCNC(=O)c7cc(NC(=O)c8nc(NC(=O)CCNC(=O)c9cc(NC(=O)c%10nccn%10C)cn9C)cn8C)cn7C)cn6C)cn5C)cn4C)CC3)cc2)cc(C(=O)NCc2c(C)cc(C)[nH]c2=O)c1C)C1CCOCC1` [Compound 164], under setting [1], the EC50 is above 500 nM.
Regarding `COc1c(OCCOCCOCCOCCOCCOCCNC(=O)CCNC(=O)c2nc(NC(=O)c3cc(NC(=O)CCNC(=O)c4nc(NC(=O)CCCNC(=O)c5cc(NC(=O)c6nc(NC(=O)CCNC(=O)c7cc(NC(=O)c8nccn8C)cn7C)cn6C)cn5C)cn4C)cn3C)cn2C)cccc1C(=O)N1CCN(C(=O)COc2cc(C)c(NC(N)=O)c(C)c2)CC1` [Compound 93], under setting [1], the EC50 is above 500 nM.
For the compound `CC(=O)c1cc(-c2ccccc2S(C)(=O)=O)c2cc(OCCOCCOCCOCCOCCOCCNC(=O)CCNC(=O)c3nc(NC(=O)c4cc(NC(=O)CCNC(=O)c5nc(NC(=O)CCCNC(=O)c6cc(NC(=O)c7nc(NC(=O)CCNC(=O)c8cc(NC(=O)c9nccn9C)cn8C)cn7C)cn6C)cn5C)cn4C)cn3C)ccn12` [Compound 169], the EC50 under setting [1] was above 500 nM.
Take `CN(C)[C@H]1CN(C2CCc3cccc(F)c32)C[C@@H]1c1ccc(N2CCN(S(=O)(=O)CCOCCOCCOCCOCCOCCNC(=O)CCNC(=O)c3nc(NC(=O)c4cc(NC(=O)CCNC(=O)c5nc(NC(=O)CCCNC(=O)c6cc(NC(=O)c7nc(NC(=O)CCNC(=O)c8cc(NC(=O)c9nccn9C)cn8C)cn7C)cn6C)cn5C)cn4C)cn3C)CC2)cc1` (stereo partly shown) [Compound 147]: the EC50 under setting [1] was above 500 nM.
Take `CCCCCCNc1nc(NC2CCN(CCOCCOCCOCCOCCOCCOCCOCCOCCOCCOCCNC(=O)CCNC(=O)c3nc(NC(=O)c4cc(NC(=O)CCNC(=O)c5nc(NC(=O)CCCNC(=O)c6cc(NC(=O)c7nc(NC(=O)CCNC(=O)c8cc(NC(=O)c9nccn9C)cn8C)cn7C)cn6C)cn5C)cn4C)cn3C)CC2)c2cc(OC)c(OC)cc2n1` [Compound 191]: the EC50 under setting [1] is above 500 nM.
For `CCN(CC)CCCC[C@H](NC(=O)Cc1nc2cc(CC(=O)Nc3ccc(C(C)(C)C)cc3)cnc2[nH]1)C(=O)N[C@@H](CO)C(=O)NCCOCCOCCOCCOCCOCCNC(=O)CCNC(=O)c1nc(NC(=O)c2cc(NC(=O)CCNC(=O)c3nc(NC(=O)CCCNC(=O)c4cc(NC(=O)c5nc(NC(=O)CCNC(=O)c6cc(NC(=O)c7nccn7C)cn6C)cn5C)cn4C)cn3C)cn2C)cn1C` [Compound 152], the EC50 under setting [2] lay within 100 to 500 nM.
For `COc1c(OCCOCCOCCOCCOCCOCCNC(=O)CCNC(=O)c2nc(NC(=O)c3cc(NC(=O)CCNC(=O)c4nc(NC(=O)CCCNC(=O)c5cc(NC(=O)c6nc(NC(=O)CCNC(=O)c7cc(NC(=O)c8nccn8C)cn7C)cn6C)cn5C)cn4C)cn3C)cn2C)cccc1C(=O)N1CCN(C(=O)COc2cc(C)cc(C)c2)CC1` [Compound 91], under setting [1], the EC50 is above 500 nM.
For `Cn1cc(NC(=O)c2nc(NC(=O)CCNC(=O)c3cc(NC(=O)c4nccn4C)cn3C)cn2C)cc1C(=O)NCCCC(=O)Nc1cn(C)c(C(=O)NCCC(=O)Nc2cc(C(=O)Nc3cn(C)c(C(=O)NCCC(=O)NCCOCCOCCn4cc(CC(=O)Nc5ccc(C(=O)Nc6ccccc6N)cc5)nn4)n3)n(C)c2)n1` [Compound 123], under setting [1], the concentration for a half-maximal effect (EC50) was above 500 nM.
`CCN(CC)CCCC[C@H](NC(=O)[C@H](CC(C)C)NC(=O)[C@H](C)NC(=O)[C@H](Cc1ccccc1)NC(=O)c1ccc(C(C)(C)C)cc1)C(=O)N[C@@H](CO)C(=O)NCCOCCOCCOCCOCCOCCNC(=O)CCNC(=O)c1nc(NC(=O)c2cc(NC(=O)CCNC(=O)c3nc(NC(=O)CCCNC(=O)c4cc(NC(=O)c5nc(NC(=O)CCNC(=O)c6cc(NC(=O)c7nccn7C)cn6C)cn5C)cn4C)cn3C)cn2C)cn1C` [Compound 25]: the EC50 under setting [2] was in the range of 100 to 500 nM.
For the compound `Cn1cc(NC(=O)c2nc(NC(=O)CCNC(=O)c3cc(NC(=O)c4nccn4C)cn3C)cn2C)cc1C(=O)NCCCC(=O)Nc1cn(C)c(C(=O)NCCC(=O)Nc2cc(C(=O)Nc3cn(C)c(C(=O)NCCC(=O)NCCOCCOCCOCCOCCOCCOCCOCCOCCOCCOCCN4CCC(C(=O)Nc5ncc(SCc6ncc(C(C)(C)C)o6)s5)CC4)n3)n(C)c2)n1` [Compound 17], under setting [1], the EC50 was above 500 nM.
On to `COc1cccc(C(=O)N2CCN(C(=O)CN(C(=O)COCCOCCOCCOCCOCCNC(=O)CCNC(=O)c3nc(NC(=O)c4cc(NC(=O)CCNC(=O)c5nc(NC(=O)CCCNC(=O)c6cc(NC(=O)c7nc(NC(=O)CCNC(=O)c8cc(NC(=O)c9nccn9C)cn8C)cn7C)cn6C)cn5C)cn4C)cn3C)c3ccc(NC(N)=O)c(C)c3)CC2)c1OC` [Compound 143], for which the EC50 under setting [1] was above 500 nM.
